Read-outs that look alike come from different tables or passages of the source.
Legend:
[1] = acidic environment; data not shown
[2] = cited from earlier work

Solubility [1]: higher in an acidic environment
SMILES: C=CC(=O)N1CCC[C@@H](n2nc(-c3ccc(Oc4ccccc4)cc3)c3c(N)ncnc32)C1 [ibrutinib, 1-(3R)-3-(4-amino-3-(4-phenoxyphenyl)-1H-pyrazolo[3,4-d]pryimidin-1-yl)prop-2-en-1-one]
Solubility ([2]; HCl at pH 1.2): slightly soluble
Solubility ([2]; aqueous solutions of pH 4.5-8): practically insoluble

Reference: patent publication US11433072B1 (Hikma Pharmaceuticals USA Inc., priority 2021, dated 2022)
